# Test results from US20180206501A1, “CONTROLLING DISEASES AND INSECTS IN PLANTS” (priority 2017, published 2018).
# Experiments:
# Cercospora = test: Laboratory over-spray of sugar beet leaf cultures on agar incubation plates; type: cell-based; details: L-1 and Control leaf cultures; 0.5% solution with 5211 surfactant in water; 24 hours incubation
# Method: The initial leaf cuttings from L-1 to L-3 were used for additional evaluations. […] All of the leaves were very green, showing no signs of Cercospora. When the leaves were cultured and incubated (three plates per sample), the plate counts on all of the samples were too numerous to count (TNTC) indicating signs of Cercospora infection.
# The control sample was taken from a known infected control sample. In addition to the normal culturing process, leaf samples from L-1 and the Control were treated in the laboratory. This involved placing the leaf culture onto the agar incubation plate, over spraying the plate with a 0.5% solution Ztrex 72 and 5211 surfactant in water. The plates were further incubated for 24 hours.
# Our Control sample was obtained from Michigan Sugar Company, Bay City, Mich. and was used for all of the initial lab studies.
# [1] = Appearance of the solution in water pH = 10 at 24 hours; type: physicochemical; details: 50% stock plus water pH = 10
# [2] = tested on: Escherichia coli (E. coli); test: Microbial testing, standard pour plate count; type: cell-based
# Method: The purpose of this study was to evaluate the effectiveness of test materials labeled #6, #7 and #8, in killing or reducing Escherichia coli (E. coli). The standard pour plate count test method was used to evaluate Percent Reduction of Colony Forming Units (CFU).
# The E. coli (lot number 168756) was purchased from Quanti-Cult™ and is derived from original ATCC® stock cultures. They are received dehydrated. A viable streak plate was colonized from this culture. One colony was transferred to 5 ml of sterile Tryptic Soy Broth (lot # A3303) and incubated overnight. Antimicrobial activity was determined by comparing results from the test sample to simultaneously run controls or from the T0. The concentration of the suspension was determined using serial dilution and plate counts to determine the amount of Colony Forming Units (CFU's)/ml of suspension.
# The materials tested in this study are described in the Purpose section. Sterile 0.3 mM KH2PO4 buffer was inoculated to a concentration of ˜1.0-3.0×10^5 CFU/ml. A To plate originated from the inoculated buffer for quantification and prepared 1:100 dilution to insure that viable inoculum was applied in the test system. The test materials were formulated in 20×150 […] test tubes. Aliquots of 0.3 grams of each of the materials (#6, #7 and #8) were added to sterile test tubes. […]
compound,measurement,setting,value
"CCCCCCCCCCCCCCCCCC[N+](C)(C)CCC[Si](OC)(OC)OC.[Cl-] [Ztrex 72, (CH3O) Si (CH2)N^+ (CH3)2 (C18H37) Cl^−]",Evidence of Cercospora on the incubation plate,Cercospora,no evidence of Cercospora
"CO[Si](CCc1ccc(S(=O)(=O)Cl)cc1)(OC)OC [#8, 2-(4-chlorosulfonylphenyl)ethyltrimethoxysilane]",Solution @ 24 hours,[1],Clear
same,"Application, microbial kill",[2],99.99
same,Plate count,"[2]; 0.3 grams in 5 ml Tryptic Soy Broth, 1×10^5 CFU E. coli, 48 hours, T0 9.6×10^4 CFU/ml",16 CFU/ml
